# Source: article PMC2064570 (The Journal of Cell Biology, 2006)
# Key:
# TbPTP1 [1] = target: T1, TbPTP1 (Trypanosoma brucei, UniProt Q38AT7); assay: pNPP hydrolysis inhibition; type: biochemical; details: read-out: % inhibition at 10 μM
# T1 sequence (Q38AT7 1-306): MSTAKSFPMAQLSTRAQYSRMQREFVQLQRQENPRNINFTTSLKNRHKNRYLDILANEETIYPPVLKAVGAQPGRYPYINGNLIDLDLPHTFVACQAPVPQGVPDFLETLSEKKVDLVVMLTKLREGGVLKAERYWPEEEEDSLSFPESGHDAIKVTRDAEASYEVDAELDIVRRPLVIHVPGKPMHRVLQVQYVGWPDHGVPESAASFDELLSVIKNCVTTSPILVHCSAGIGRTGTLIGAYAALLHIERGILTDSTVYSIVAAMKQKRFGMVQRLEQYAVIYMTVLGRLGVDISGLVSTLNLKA
# TbPTP1 [2] = target: T1, TbPTP1; assay: malachite green phosphate release, Lineweaver-Burk; type: biochemical; details: 50 mM Hepes, 150 mM NaCl, pH 7.0, 37 °C
# TbPTP1 [3] = target: T1, TbPTP1; details: pNPP or pEGFR peptide as substrate
smiles,measurement,setting,value
"CCc1oc2cc(S(=O)(=O)Nc3ccc(S(=O)(=O)Nc4nccs4)cc3)ccc2c1C(=O)c1cc(Br)c(O)c(Br)c1 [BZ3, 3-(3,5-Dibromo-4-hydroxy-benzoyl)-2-ethyl-benzofuran-6-sulfonicacid-(4-(thiazol-2-ylsulfamyl)-phenyl)-amide]",inhibition at 10 µM,TbPTP1 [1],> 50%
N[C@@H](COP(=O)(O)O)C(=O)O [pSer],Km,TbPTP1 [2],"phospho-Tyr (pTyr), and phospho-Ser (pSer)"
[O]=[V]([OH])([OH])[OH] [sodium orthovanadate],% inhibition at 1 mM,TbPTP1 [3],90%
